Test systems include SNB-75; SF-295; SK-MEL-2; NCI-H460; MOLT-4; MDA-MB-435; M14; HCT-15; DU-145; SF-268; Malme-3M; OVCAR-4; SF-539; RPMI-8226; OVCAR-3; TK-10; HCC 2998; SR; IGROV-1; HOP-92.
Holding throughout (assay): NCI anticancer screen, dose series, 48 h

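1) Cells in 96-well plates. 2) Compound, 48 h, 5 concentrations. 3) Linear interpolation between surrounding doses. 4) Unreached endpoint = highest concentration. GI50: concentration for 50% inhibition of growth.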 The source made the active and inactive calls. Cut-off read from the data, not from the text of the source: active = GI50 up to about 1.1 µM and inactive = higher. Where only a bound is given, the exact number is not on record here.

Take `CN1CCN(CCCN2c3ccccc3Sc3ccc(C(F)(F)F)cc32)CC1`: the GI50 in the experiment on SNB-75 was 7.24 µM (inactive); with SF-295 it was 9.89 µM (inactive); with SK-MEL-2, 7.93 µM (inactive); with NCI-H460, 3.86 µM (inactive); in the experiment on MOLT-4 it was 4.6 µM (inactive); in the experiment with MDA-MB-435, 3.35 µM (inactive). Further, the GI50 with M14 was 1.88 µM (inactive); with HCT-15, 7.1 µM; with DU-145 it was 16.4 µM (inactive); in the experiment with SF-268 it was 12.4 µM (inactive); in the experiment on Malme-3M, 2.69 µM (inactive); with OVCAR-4 it was 13.5 µM (inactive). Moreover, the GI50 in the experiment with SF-539 was 7.28 µM (inactive).
Consider `Cc1ccc(C)c(NC(=O)C(=O)CC(=O)c2cccc3ccccc23)c1`, for which the GI50 in the experiment with RPMI-8226, in the experiment on SNB-75, in the experiment with OVCAR-3, with SF-295, in the experiment on TK-10 and in the experiment with SK-MEL-2 was > 100 µM (inactive) throughout. Further, the GI50 in the experiment with NCI-H460 is > 100 µM (inactive); in the experiment on MOLT-4, > 100 µM (inactive); with M14, > 100 µM (inactive); in the experiment with HCT-15, over 100 µM; in the experiment with HCC 2998 it was > 100 µM (inactive); in the experiment on SR, > 100 µM (inactive). The GI50 in the experiment on IGROV-1, in the experiment on SF-268, in the experiment with Malme-3M, in the experiment on OVCAR-4, in the experiment on SF-539 and in the experiment with HOP-92 was > 100 µM (inactive) throughout.
`COC(=O)c1nsc(OC)c1Cl`: the GI50 with RPMI-8226, with SNB-75, with OVCAR-3, with SF-295, in the experiment on TK-10 and in the experiment on MOLT-4 was > 100 µM (inactive) in each case. The GI50 with MDA-MB-435 is > 100 µM (inactive); with M14, > 100 µM (inactive); with HCT-15, over 100 µM; with HCC 2998 it was > 100 µM (inactive); in the experiment with IGROV-1, > 100 µM (inactive); in the experiment on DU-145, > 100 µM (inactive). Besides, the GI50 in the experiment on SF-268, in the experiment with Malme-3M, with OVCAR-4 and in the experiment with SF-539 was > 100 µM (inactive) throughout.
As for `CCOC(=O)NC(=O)c1cn(CCN2CCN(C(=O)CCCCCCCCCCNc3ncnc4[nH]cnc34)CC2)c(=O)[nH]c1=O`, the GI50 in the experiment on RPMI-8226 was 94 µM (inactive); with SNB-75, > 100 µM (inactive); in the experiment on OVCAR-3 it was > 100 µM (inactive); in the experiment on SF-295, > 100 µM (inactive); in the experiment on TK-10 it was > 100 µM (inactive); in the experiment on SK-MEL-2, > 100 µM (inactive). In addition, the GI50 is > 100 µM (inactive) in the experiment with NCI-H460; 43.9 µM (inactive) in the experiment on MOLT-4; > 100 µM (inactive) with M14; over 100 µM in the experiment with HCT-15; > 100 µM (inactive) with HCC 2998; > 100 µM (inactive) in the experiment on SR. The GI50 in the experiment on IGROV-1 was > 100 µM (inactive); in the experiment with SF-268, 13.1 µM (inactive); in the experiment with Malme-3M, 6.7 µM (inactive); in the experiment on OVCAR-4, > 100 µM (inactive); in the experiment with SF-539, > 100 µM (inactive); in the experiment with HOP-92, > 100 µM (inactive).
In the case of `CCCCCCCCCCCCC/C=C1\C[C@H](O)COC1=O`, the GI50 in the experiment on RPMI-8226 was 17.5 µM (inactive); with SNB-75, 15.9 µM (inactive); with OVCAR-3, 17.5 µM (inactive); in the experiment on SF-295 it was 18.1 µM (inactive); in the experiment on TK-10, 17.6 µM (inactive); in the experiment with SK-MEL-2 it was 16.6 µM (inactive). Further, the GI50 in the experiment with NCI-H460 was 17.3 µM (inactive); with M14, 15 µM (inactive); in the experiment on HCT-15, 16.5 µM; in the experiment on HCC 2998, 20.9 µM (inactive); with SR it was 18.6 µM (inactive); in the experiment on IGROV-1, 18.1 µM (inactive). The GI50 is 20.4 µM (inactive) in the experiment with SF-268; 21 µM (inactive) in the experiment with Malme-3M; 16.9 µM (inactive) with OVCAR-4; 19.8 µM (inactive) in the experiment on SF-539; 11.6 µM (inactive) in the experiment with HOP-92.
Take `CCCc1c(OC)c(=O)c2c(OC)cc(OC)c3c4c(OC)cc(OC)c5c(=O)c(OC)c(CCC)c(c1c23)c54`: the GI50 is 7.23 µM (inactive) with SNB-75; 14.8 µM (inactive) in the experiment with OVCAR-3; 17.8 µM (inactive) in the experiment on SF-295; 21 µM (inactive) with TK-10; 22 µM (inactive) in the experiment with SK-MEL-2; 13.7 µM (inactive) with NCI-H460. Further, the GI50 was 7.91 µM (inactive) with MOLT-4; 16 µM (inactive) in the experiment with MDA-MB-435; 16.9 µM (inactive) in the experiment on M14; 12.8 µM in the experiment with HCT-15; 20.1 µM (inactive) in the experiment with HCC 2998; 14.8 µM (inactive) in the experiment on IGROV-1. Moreover, the GI50 in the experiment on DU-145 is 12.2 µM (inactive); in the experiment on SF-268 it was 16.1 µM (inactive); with OVCAR-4, 13.3 µM (inactive); in the experiment on SF-539 it was 15.1 µM (inactive); in the experiment on HOP-92 it was 10.9 µM (inactive).
On to `COc1cc2c(cc1O)C(C)Cc1cc3c(cc1N(C)CC2)OCO3` (centres undefined), for which the GI50 in the experiment on RPMI-8226 is 4.09 µM (inactive); with SNB-75, 2.45 µM (inactive); in the experiment with OVCAR-3, 3.03 µM (inactive); with SF-295 it was 2.78 µM (inactive); in the experiment with TK-10, 27.3 µM (inactive); in the experiment with SK-MEL-2, 4.44 µM (inactive). Further, the GI50 was 3.35 µM (inactive) in the experiment with NCI-H460; 4.13 µM (inactive) with MOLT-4; 3.22 µM (inactive) with M14; 3.94 µM in the experiment with HCT-15; 5.27 µM (inactive) in the experiment on HCC 2998; 4.45 µM (inactive) with SR. Further, the GI50 with IGROV-1 was 10 µM (inactive); in the experiment on SF-268 it was 5.3 µM (inactive); with Malme-3M it was 3.12 µM (inactive); with OVCAR-4, 15.7 µM (inactive); in the experiment with SF-539, 2.72 µM (inactive); in the experiment with HOP-92, 4.66 µM (inactive).
Take `O=S(=O)(c1ccccc1)n1c2cc3cccnc3nc2c2cccnc21`: the GI50 with RPMI-8226 was 18.5 µM (inactive); with SNB-75, 28.4 µM (inactive); in the experiment on OVCAR-3, 38.5 µM (inactive); in the experiment on SF-295 it was 49.8 µM (inactive); in the experiment with TK-10 it was > 100 µM (inactive); in the experiment on SK-MEL-2, > 100 µM (inactive). Also, the GI50 with NCI-H460 is 36.9 µM (inactive); in the experiment on MOLT-4 it was 45.3 µM (inactive); with MDA-MB-435, 25.5 µM (inactive); in the experiment on M14, > 100 µM (inactive); with HCT-15, 71.3 µM; in the experiment with HCC 2998, > 100 µM (inactive). In addition, the GI50 with SR was 10.9 µM (inactive); with IGROV-1 it was 79.1 µM (inactive); in the experiment on SF-268 it was 56.8 µM (inactive); in the experiment on Malme-3M it was > 100 µM (inactive); with OVCAR-4 it was 72.3 µM (inactive); in the experiment on HOP-92 it was 21.1 µM (inactive).
Regarding `COc1ccc(C(=O)OC2C=COC(C)C2OC(=O)c2ccc(OC)cc2)cc1` (centres undefined), the GI50 in the experiment with RPMI-8226 is 8.22 µM (inactive); with SNB-75, 12.4 µM (inactive); in the experiment on OVCAR-3, 16.6 µM (inactive); with SF-295, 33.2 µM (inactive); in the experiment on TK-10, 52.6 µM (inactive); in the experiment with SK-MEL-2, 17.5 µM (inactive). Further, the GI50 in the experiment on NCI-H460 is 40.7 µM (inactive); in the experiment on MOLT-4, 16.3 µM (inactive); with M14, 16.6 µM (inactive); with HCT-15, 14.9 µM; in the experiment on HCC 2998, > 58.1 µM (inactive); with SR, 16.1 µM (inactive). In addition, the GI50 in the experiment with IGROV-1 was 37 µM (inactive); in the experiment on SF-268, 15.8 µM (inactive); in the experiment on Malme-3M it was 18.2 µM (inactive); in the experiment with OVCAR-4 it was 24.9 µM (inactive); in the experiment on SF-539, 18 µM (inactive); with HOP-92 it was 17.5 µM (inactive).
With `CC1=CCC[C@@]2(C)C(CC[C@@H]2C(C)/C=C/C(C)C)c2ccc(cc2C(=O)O)C[C@@H](O)CC1` (some centres undefined), the GI50 in the experiment on RPMI-8226 is 3.63 µM (inactive); in the experiment with SNB-75, 13.8 µM (inactive); with OVCAR-3 it was 13.7 µM (inactive); with SF-295 it was 9.27 µM (inactive); with TK-10, 12.5 µM (inactive); in the experiment on SK-MEL-2, 17.1 µM (inactive). For the same compound, the GI50 is 7.01 µM (inactive) in the experiment with NCI-H460; 11.6 µM (inactive) in the experiment with MOLT-4; 16.9 µM (inactive) with M14; 5.07 µM in the experiment on HCT-15; 9.93 µM (inactive) in the experiment on HCC 2998; 13.5 µM (inactive) in the experiment with SR. The GI50 is 12.3 µM (inactive) in the experiment with IGROV-1; 14.2 µM (inactive) in the experiment with SF-268; 15.7 µM (inactive) in the experiment on Malme-3M; 12.1 µM (inactive) with OVCAR-4; 8.55 µM (inactive) in the experiment on SF-539; 14.4 µM (inactive) with HOP-92.
On to `CC1(C)C2CCC1(C)C(N/C(Sc1ccccc1)=C(/C(Cl)=C(Cl)Cl)[N+](=O)[O-])C2` (centres undefined), for which the GI50 in the experiment with SNB-75 was 15.6 µM (inactive); with OVCAR-3, 4.92 µM (inactive); in the experiment with SF-295, 13.1 µM (inactive); in the experiment on SK-MEL-2, 12.5 µM (inactive); in the experiment on NCI-H460 it was 15.3 µM (inactive); with MOLT-4, 3.22 µM (inactive). Besides, the GI50 in the experiment with MDA-MB-435 is 10.4 µM (inactive); in the experiment on M14, 13.2 µM (inactive); with HCT-15, 10.4 µM; in the experiment with HCC 2998, 15.2 µM (inactive); with DU-145 it was 17.7 µM (inactive); in the experiment with SF-268, 12 µM (inactive). The GI50 with Malme-3M was 15.1 µM (inactive); in the experiment on OVCAR-4, 13.4 µM (inactive); in the experiment on SF-539, 13.5 µM (inactive).
Consider `COC(=O)[C@@]1(O)CC(C)C=C1C=O` (some centres undefined), for which the GI50 is > 100 µM (inactive) in the experiment on RPMI-8226; > 100 µM (inactive) in the experiment with SNB-75; 53.6 µM (inactive) in the experiment with OVCAR-3; > 100 µM (inactive) with SF-295; > 100 µM (inactive) with TK-10; > 100 µM (inactive) in the experiment on SK-MEL-2. Also, the GI50 in the experiment with NCI-H460 is 20.6 µM (inactive); in the experiment with MOLT-4, 60.8 µM (inactive); in the experiment on M14 it was > 100 µM (inactive); with HCT-15 it was 17.8 µM; in the experiment on HCC 2998, 66.5 µM (inactive); in the experiment on SR, 55.3 µM (inactive). The GI50 with IGROV-1 was > 100 µM (inactive); in the experiment on SF-268, 43.2 µM (inactive); in the experiment on Malme-3M, > 100 µM (inactive); in the experiment on OVCAR-4, > 100 µM (inactive); in the experiment on SF-539, > 100 µM (inactive); with HOP-92 it was > 100 µM (inactive).

Values taken from ChEMBL document CHEMBL1201862, “PubChem BioAssay data set” (2004).
